According to patent US20230278987A1, “Antimicrobial Compounds and Methods” (Curza Global, LLC, priority 2019, published 2023):
≈ marks a conversion by molar mass, not a printed value. Counter-ions that a name gives are not always drawn. Like-named read-outs stand apart in the source and are kept apart here.

How the values were obtained:
S.aureus (Sa) = assay: Broth microdilution MIC against S.aureus (Sa); format: cell-based; conditions: Staphylococcus aureus
Description: (§1) A certified BSL-2 laboratory was used for testing. Compounds were evaluated using the broth microdilution minimum inhibitory concentration (MIC) and minimum bactericidal concentration (MBC) assays defined by Clinical and Laboratory Standards Institute (CLSI) in the M26-A guideline against S.aureus (Sa), E.coli (Ec), K.pneumoniae (Kp), A.baumannii (Ab), E.faecalis (Ef) and P.aeruginosa (Pa).
(§2) MICs were determined using the Clinical Laboratory and Standards Institute (CLSI) Broth Microdilution Method with slight modification. Clinical and Laboratory Standards Institute (2012). “Methods for dilution antimicrobial susceptibility tests for bacteria that grow aerobically; approved standard, 9th ed. M07-A9. Clinical and Laboratory Standards Institute, Wayne, PA.” Serial two-fold dilutions of compounds are prepared in sterile clear roundbottom 96-well plates.
(§3) To prepare microdilution trays, two-fold dilutions of antimicrobial agent are prepared in growth medium: Cation-Adjusted Mueller-Hinton Broth (CAMHB), or CAMHB supplemented with sodium bicarbonate (6.25 or 25 mM final concentration prepared from a 1.0 M stock solution) or CAMHB supplemented with heat inactivated human serum (Fisher Cat. # BP2657100) 0-50% by adding 200 µL of the highest concentration to be tested (64 µg/mL, for example) in row A, mixing and transferring 100 µL from row A to 100 µL growth medium in row B, then repeating the mixing and transferring through row H of the 96-well plate, discarding the excess 100 µL remaining. This slight modification to the CLSI protocol enables evaluation of MICs for 3 compounds per plate in triplicate, albeit with only 8 compound dilutions (CLSI protocol enables 2 compounds in triplicate with 10 dilutions). Bacterial suspensions are added to a final concentration of 5 × 10^4 CFU/well by adding 5 µL of a 1:10 dilution of a 0.5 McFarland suspension (1 × 10^8 CFU/mL) for each bacterium evaluated. Bacterial suspensions were prepared using the growth method described by CLSI. Well-isolated colonies (3-5 from an agar plate) were selected using a sterile loop and used to inoculate a tube containing 4 mL of CAMHB. The cultures are incubated at 35 ± 2° C. until it achieves or exceeds the turbidity of the 0.5 McFarland standard, determined by measuring A600nm (usually two to six hours). When growth exceeds a 0.5 McFarland standard, the turbidity is adjusted with broth to be equivalent to a 0.5 McFarland standard.

E.coli (Ec) = assay: Broth microdilution MIC against E.coli (Ec); format: cell-based; conditions: Escherichia coli
Description: as §1, §2, §3

P.aeruginosa (Pa) = assay: Broth microdilution MIC against P.aeruginosa (Pa); format: cell-based; conditions: Pseudomonas aeruginosa
Description: as §1, §2, §3

A.baumannii (Ab) = assay: Broth microdilution MIC against A.baumannii (Ab); format: cell-based; conditions: Acinetobacter baumannii
Description: as §1, §2, §3

E.faecalis (Ef) = assay: Broth microdilution MIC against E.faecalis (Ef); format: cell-based; conditions: Enterococcus faecalis
Description: as §1, §2, §3

[1] = test system: E.coli S30 extract (bacterial protein synthesis); assay: E.coli S30 extract: inhibition of bacterial protein synthesis (luciferase); format: biochemical; conditions: 37° C. for 1 hour
Description: E.coli S30 extract: Inhibition of bacterial protein synthesis was determined using the E.coli S30 Extract System for Circular DNA (Promega catalog #L-2010) and Luciferase Assay Reagent (Promega catalog #E1500) with slight modifications to a published protocol. Fyfe, C., Sutcliffe, J.A. and Grossman, T.H. (2012) “Development and characterization of a Pseudomonas aeruginosa in vitro coupled transcription-translation assay system for evaluation of translation inhibitors” J. Microbiol. Methods 90(3), 256-261.
Compounds were serial diluted in 0.5 mL microcentrifuge tubes by mixing and transferring 50 µL from the highest concentration to 50 µL of water, mixing and transferring 50 µL of this 2-fold dilution to 50 µL of water. This mixing and transferring was repeated so that there are a total of 8 tubes with serial dilutions of compound at 10× the desired screening concentration that are ultimately diluted to 1× by the addition of S30 luciferase synthesis mixture. Serial dilutions of compounds were added (2 µL) to wells in a black round bottom 96-well plate. Water (2 µL) was used as a “no inhibitor” control in 4 wells/plate. No DNA control reaction mixture (20 µL; see below) was used as a control in 4 wells/plate for background luminescence. S30 luciferase synthesis mixture (18 µL; see below) was added to wells with compounds or water mixture and incubated at 37° C. for 1 hour. Reactions were stopped by transferring to 4° C. refrigerator for 5 minutes then 25 µL of luciferase activity mix was added. Luminescence was measured using a BioTek Synergy HTX plate reader. % Inhibition was determined relative to no inhibitor controls.
S30 luciferase synthesis mixture: • 445 µL S30 extract, circular • 712 µL S30 Premix without amino acids • 4.45 µL pBESTluc™ DNA (1 µg/ µL) • 78 µL complete amino acid mixture • 267 µL water
No DNA control: • 20 µL S30 extract, circular • 32 µL S30 Premix without amino acids • 7 µL complete amino acid mixture • 21 µL water

[2] = target: Rabbit Reticulocyte Lysate (eukaryotic protein synthesis); assay: Rabbit Reticulocyte Lysate: inhibition of eukaryotic protein synthesis (luciferase); format: biochemical; conditions: 30° C. for 90 minutes, read-out: retic. IC50
Description: Inhibition of eukaryotic protein synthesis was determined using the Rabbit Reticulocyte Lysate System, Nuclease-Treated from Promega (catalog #L-4960) with slight modifications to the manufacturer’s protocol. Compounds were serial diluted in 0.5 mL microcentrifuge tubes by mixing and transferring 50 µL from the highest concentration to 50 µL of water, mixing and transferring 50 µL of this 2-fold dilution to 50 µL of water. This mixing and transferring was repeated so that there are a total of 8 tubes with serial dilutions of compound at 10× the desired screening concentration that are ultimately diluted to 1× by the addition of rabbit reticulocyte luciferase synthesis mixture. Serial dilutions of compounds were added (2.5 µL) to wells in a black round bottom 96-well plate. Water (2.5 µL) was used as a “no inhibitor” control in 4 wells/plate. No RNA control reaction mixture (2 µL; see below) was used as a control in 4 wells/plate for background luminescence. Rabbit reticulocyte luciferase synthesis mixture (22.5 µL; see below) was added to wells with compounds or water mixture and incubated at 30° C. for 90 minutes. Luciferase assay reagent (25 µL) was added with luminescence measured using a BioTek Synergy HTX plate reader. % Inhibition was determined relative to no inhibitor controls.
Rabbit reticulocyte luciferase synthesis mixture: • 1,000 µL rabbit reticulocyte lysate • 5.7 µL Luciferase Control RNA (1 µg/ µL) • 26 µL complete amino acid mixture • 395 µL water
No RNA Control • 70 µL rabbit reticulocyte lysate • 2 µL complete amino acid mixture • 28 µL water

[3] = CAMHB supplemented with sodium bicarbonate 25 mM, read-out: Sa + bicarb 25 (MIC)
[4] = CAMHB supplemented with sodium bicarbonate 25 mM, read-out: E.coli + bicarb 25 (MIC)
[5] = CAMHB supplemented with sodium bicarbonate 25 mM, read-out: Pa +bicarb 25 (MIC)
[6] = CAMHB supplemented with sodium bicarbonate 25 mM, read-out: Ab +bicarb 25 (MIC)
[7] = CAMHB supplemented with sodium bicarbonate 25 mM, read-out: Ef +bicarb 25 (MIC)
[8] = CAMHB supplemented with sodium bicarbonate 6.25 mM, read-out: Sa + bicarb 6.25 (MIC)
[9] = CAMHB supplemented with sodium bicarbonate 6.25 mM, read-out: E. coli + bicarb 6.25 (MIC)
[10] = CAMHB supplemented with sodium bicarbonate 6.25 mM, read-out: Pa +bicarb 6.25 (MIC)
[11] = CAMHB supplemented with sodium bicarbonate 6.25 mM, read-out: Ab +bicarb 6.25 (MIC)
[12] = CAMHB supplemented with sodium bicarbonate 6.25 mM, read-out: Ef +bicarb 6.25 (MIC)

CC(C)(N)C(=O)N1CCN(C(=O)Nc2ccn(-c3ccc4c(c3)CCC(N[C@H]3CC[C@@H](N)CC3)C4)c(=O)n2)CC1 (stereo partly drawn) [Compound 6]
MIC (S.aureus (Sa); [3]): < 8 µg/mL | MIC (E.coli (Ec); [4]): < 8 µg/mL | MIC (P.aeruginosa (Pa); [5]): > 32 µg/mL | MIC (A.baumannii (Ab); [6]): > 32 µg/mL | MIC (E.faecalis (Ef); [7]): < 8 µg/mL | IC50 [1]: < 0.5 µM | IC50 [2]: ≥ 1 µM

CC(C)(N)C(=O)N1CCN(C(=O)Nc2ccn(-c3ccc4c(c3)OCC(N3C[C@@H]5[C@@H](N)[C@@H]5C3)C4)c(=O)n2)CC1 (stereo partly drawn) [Compound 13, Hydrochloride Salt]
MIC (S.aureus (Sa); [3]): 8 to 32 µg/mL | MIC (E.coli (Ec); [4]): 8 to 32 µg/mL | MIC (P.aeruginosa (Pa); [5]): 8 to 32 µg/mL | MIC (A.baumannii (Ab); [6]): 8 to 32 µg/mL | MIC (E.faecalis (Ef); [7]): 8 to 32 µg/mL | IC50 [1]: ≥ 1 µM | IC50 [2]: ≥ 1 µM

CC(C)(N)C(=O)N1CCN(C(=O)Nc2ccn(-c3ccc4c(c3)CCN(C3CCC(N)CC3)C4)c(=O)n2)CC1 (stereo not drawn) [Compound 35]
MIC (S.aureus (Sa); [8]): < 8 µg/mL | MIC (E.coli (Ec); [9]): < 8 µg/mL | MIC (P.aeruginosa (Pa); [10]): > 32 µg/mL | MIC (A.baumannii (Ab); [11]): > 32 µg/mL | MIC (E.faecalis (Ef); [12]): > 32 µg/mL | IC50 [1]: < 0.5 µM | IC50 [2]: ≥ 1 µM

CC(C)(N)C(=O)N1CCN(C(=O)Nc2ccn(-c3ccc4c(c3)CCC(N[C@H]3CC[C@H](N)C3)C4)c(=O)n2)CC1 (stereo in doubt) [Compound 10]
MIC (S.aureus (Sa); [3]): < 8 µg/mL | MIC (E.coli (Ec); [4]): < 8 µg/mL | MIC (P.aeruginosa (Pa); [5]): > 32 µg/mL | MIC (A.baumannii (Ab); [6]): > 32 µg/mL | MIC (E.faecalis (Ef); [7]): < 8 µg/mL | IC50 [1]: < 0.5 µM | IC50 [2]: ≥ 1 µM

CC(C)(N)C(=O)N1CCN(C(=O)Nc2ccn(-c3ccc4c(c3)CCC(N3CCC(CCN)CC3)C4)c(=O)n2)CC1 (stereo not drawn) [Compound 42, 4-(2-Amino-2-methylpropanoyl)-N-(1-(6-(4-(2-aminoethyl)piperidin-1-yl)-5,6,7,8-tetrahydronaphthalen-2-yl)-2-oxo-1,2-dihydropyrimidin-4-yl)piperazine-1-carboxamide hydrochloride salt]
MIC (S.aureus (Sa); read-out: Sa + bicarb 6.25 (MIC)): 8 to 32 µg/mL | MIC (E.coli (Ec); read-out: E. coli + bicarb 6.25 (MIC)): < 8 µg/mL | MIC (P.aeruginosa (Pa); read-out: Pa +bicarb 6.25 (MIC)): > 32 µg/mL | MIC (A.baumannii (Ab); read-out: Ab +bicarb 6.25 (MIC)): > 32 µg/mL | MIC (E.faecalis (Ef); read-out: Ef +bicarb 6.25 (MIC)): > 32 µg/mL | IC50 [1]: ≥ 1 µM | IC50 [2]: ≥ 1 µM

CC(C)(N)C(=O)N1CCN(C(=O)Nc2ccn(-c3ccc4c(c3)CCC(NC[C@H]3C[C@@H](N)C3)C4)c(=O)n2)CC1 (stereo partly drawn) [Compound 32]
MIC (S.aureus (Sa); [8]): < 8 µg/mL | MIC (E.coli (Ec); [9]): < 8 µg/mL | MIC (P.aeruginosa (Pa); [10]): > 32 µg/mL | MIC (A.baumannii (Ab); [11]): > 32 µg/mL | MIC (E.faecalis (Ef); [12]): 8 to 32 µg/mL (≈ 14.9 to 59.6 µM) | IC50 [1]: < 0.5 µM | IC50 [2]: ≥ 1 µM
